Values joined by “and” are separate entries in the source; they are usually repeats but may differ in a detail not shown here. Equal values may be shown once.
Columns and labels:
Molt-4 = assay: MTT growth inhibition, Molt-4 cells, 72 h; format: cell-based, human; settings: Homo sapiens, MOLT-4, 72 h
Experimental: (§1) 5000 well-grown leukemia cells or normal human blood cells were taken and seeded into wells of a 96-well cell culture plate. The medium was 1640 cell medium containing 10% fetal bovine serum. 14-D-Valine-TPL with different concentrations was added, and after being uniformly mixed, the plate was placed in a carbon dioxide (5% CO2) cell incubator, and incubated at 37° C. for 72 hours. The concentration of live cells was then determined using the MTT assay. In this experiment, the cell viability in the control group (without the compound treatment) was set to be 100%, and the cell viability (%) after the action of the compound the half maximal growth inhibitory concentration of leukemia cells at 72 hours (IC50 value at 72 hours) and the therapeutic window index were calculated. Therapeutic window index=IC50 value of normal blood cells/IC50 value of leukemia cells. […] A larger therapeutic window indicates a better selectivity of the compound for tumor cells.
(§2) 5000 well-grown leukemia cells were taken and seeded into wells of a 96-well cell culture plate. The medium was 1640 cell medium containing 10% fetal bovine serum. 14-D-Valine-TPL with different concentrations was added, and after being uniformly mixed, the plate was placed in a carbon dioxide (5% CO2) cell incubator, and incubated at 37° C. for 72 hours. The concentration of live cells was then determined using the MTT assay. In this experiment, the cell viability in the control group (without the compound treatment) was set to be 100%, and the cell viability (%) after the action of the compound and the half maximal growth inhibitory concentration of leukemia cells at 72 hours (IC50 value at 72 hours) were calculated.
as §2, with “well-grown lymphocytes” for “well-grown leukemia cells”

normal human blood cells = assay: MTT assay, normal human blood cells, 72 h; format: cell-based; settings: Normal Blood Cell
Experimental: Leukemia cell strains: Sup-B15 (Ph+acute lymphoblastic leukemia), CEM (acute lymphoblastic leukemia, ALL), and Molt-4 (acute lymphoblastic leukemia, ALL). Normal blood cell samples: peripheral blood from healthy volunteers. • Primary reagent: 14-D-Valine-TPL of the invention. Primary instruments: cell incubator and microplate reader. (2) Experimental Method
as §1

U937 = assay: MTT growth inhibition, U937 cells, 72 h; format: cell-based; settings: Homo sapiens, U-937
Experimental: as §2

[1] = test system: RNA polymerase II (Pol II); assay: Immunoblot of Pol II level in THP-1 cells, 48 h; format: cell-based, human; settings: 160 nM
Experimental: (§3) Well-grown leukemia cells were taken and seeded into wells of a 6-well cell culture plate, with a density of 1×10^6/ml. The medium was 1640 cell medium containing 10% fetal bovine serum. 14-D-Valine-TPL with different concentrations was added, and after being uniformly mixed, the plate was placed in a carbon dioxide (5% CO2) cell incubator, and incubated at 37° C. for 48 hours. Cellular proteins were then extracted, and the immunoblot technique was used to detect the expression levels of XPB and Pol II.

c-myc = assay: Immunoblot of c-myc level in K562 cells, 48 h; format: cell-based, human; settings: 80 nM
Experimental: as §3, with “level” for “levels”, “c-myc.” for “XPB and Pol II.”

For `CC(C)[C@@H](N)C(=O)O[C@@H]1[C@@]2(C(C)C)O[C@H]2[C@@H]2O[C@]23[C@]12O[C@H]2C[C@H]1C2=C(CC[C@@]13C)C(=O)OC2` [14-D-Valine-TPL, 14-Dextro-Valine-Triptolide], which IC50 (Molt-4) is on record?
Its IC50 is 10.8 nM.

What about the IC50 (normal human blood cells; Homo sapiens, 72 h, Overall, MTT) of the same compound?
The IC50 was 201 nM.

And the IC50 (normal human blood cells; Homo sapiens, 72 h, individual healthy volunteers No1-No9, MTT)?
The IC50 was 203 nM.

What about the IC50 (normal human blood cells; individual healthy volunteers No1-No9, MTT) of the same compound?
The IC50 was 199 nM and 206 nM and 200 nM and 214 nM and 190 nM and 204 nM and 185 nM and 211 nM.

What about the IC50 (U937) of the same compound?
The IC50 was 60 nM.

What about the “level of Pol II (immunoblot)” value [1] of the same compound?
The value was “significantly inhibited”.

And the “level of c-myc (immunoblot)” value (c-myc)?
Its value is “significantly inhibited”.
